Values quoted from earlier work as cited in publication PMC9420858, “Synthesis, bioactivity, and molecular docking of novel arylpiperazine derivatives as potential AR antagonists” (Frontiers in Chemistry, 2022).

Tests used:
PC-3 cells = conditions: printed without SD, ref Banday et al., 2014, read-out: PC-3 IC50 (control compound finasteride); cited from earlier work
LNCaP cells = conditions: printed without SD, ref Banday et al., 2014, read-out: LNCaP IC50 (control compound finasteride); cited from earlier work

For `CC(C)(C)NC(=O)[C@H]1CC[C@H]2[C@@H]3CC[C@H]4NC(=O)C=C[C@]4(C)[C@H]3CC[C@]12C` [Finasteride], which IC50 (PC-3 cells) is on record?
Its IC50 is 17.8 µM.

What about the IC50 (LNCaP cells) of the same compound?
The IC50 was 13.5 µM.
